{"source": "patent US7132506B2", "about": "“Peptide having osteogenetic activity and osteogenetic accelerator containing the same” (Kyocera Corporation, priority 2001, dated 2006)"}
{"test_system": "C3H10T1/2 cell strain", "assay": "Induction of alkali phosphatase activity in C3H10T1/2 cell strain", "type": "cell-based, mouse", "settings": "200 μg peptide solidified per well by air drying; three days of incubation; blank wells 0.24±0.11", "method": "Undifferentiated mouse mesenchymal cell strain C3H10T1/2 (purchased from Dai-Nippon Seiyaku KK, Japan) was dispersed in Eagle's MEM medium containing 10% of fetal bovine serum in a cell concentration of 3.75×10^4 cells/mL, and thus a cell culture liquid was prepared.\nThree days after the start of incubation, a culture supernatant was removed, and the wells were washed once with phosphate buffer (PBS: 10 mM, containing 0.15 M of common salt, pH 7.4). To each well of the 96-hole plates, 100 μL of Tris buffer (20 mM, pH 8.5) containing 1% Triton X-100 was added and allowed to stand for 30 minutes to dissolve cells. With respect to 100 μL of the resulting cell solution, 100 μL of Tris buffer (1.5 M, containing 1 mM of ZnCl2 and 1 mM of MgCl2, pH 8.5) containing 7.5 mM of p-nitrophenyl phosphate (purchased from Wako Junyaku Kogyo, Japan) were added. Increase in absorbency at 405 nm was measured to determine the alkaline phosphatase activity in the cell solution. The concentration of protein in the cell solution was also determined using a BCA assay kit (produced by Pierce).", "units": {"alkaline phosphatase activity": "nmol/min·mg-protein"}}
{"substance": "Example 1: Peptide having amino acid sequence SEQ ID NO:4 with an amino group at the N terminal and a carboxyl group at the C terminal (NSVNSKIPKACSVPTELSAISTLYL)", "alkaline phosphatase activity": "1.3±0.9"}
{"substance": "Example 2: Peptide having amino acid sequence SEQ ID NO:4 with an amino group at the N terminal and an amide group at the C terminal (H-NSVNSKIPKACSVPTELSAISTLYL-NH2)", "alkaline phosphatase activity": "1.5±0.6"}
{"substance": "Example 3: Peptide having amino acid sequence SEQ ID NO:5 with an amino group at the N terminal and an amide group at the C terminal (H-NSVNSKIPKASSVPTELSAISTLYL-NH2)", "alkaline phosphatase activity": "1.5±0.8"}
{"substance": "Example 4: Peptide having amino acid sequence SEQ ID NO:6 with an amino group at the N terminal and an amide group at the C terminal (H-KIPKASSVPTELSAISTLYL-NH2)", "alkaline phosphatase activity": "1.7±0.1"}
